{"source": "patent US7232833B2", "about": "“4-substituted quinoline derivatives, method and intermediates for their preparation and pharmaceutical compositions containing them” (Novexel, priority 2003, dated 2007)", "key": {"[1]": {"test_system": "E. faecalis ATCC29212", "assay": "MIC by dilutions in agar medium (NCCLS)", "type": "cell-based", "conditions": "Enterococcus faecalis, Gram-positive, at 24 hours, agar dilution", "description": "(§1) a) Activity in vitro The method of dilutions in agar medium in agreement with the NCCLS recommendations is used for the determination of the minimum inhibitory concentrations (MIC) expressed in μg/ml."}, "[2]": {"test_system": "M. catarrhalis IPA151 sensitive", "assay": "MIC by dilutions in agar medium (NCCLS)", "type": "cell-based", "conditions": "Moraxella catarrhalis, IPA151SENSITIVE; Gram-negative, at 48 hours, agar dilution", "description": "as §1"}, "[3]": {"test_system": "S. aureus AS 5155 methicillin resistant", "assay": "MIC by dilutions in agar medium (NCCLS)", "type": "cell-based", "conditions": "Staphylococcus aureus; Gram-positive, at 24 hours, agar dilution", "description": "as §1"}, "[4]": {"test_system": "S. aureus IP8203 sensitive", "assay": "MIC by dilutions in agar medium (NCCLS)", "type": "cell-based", "conditions": "Staphylococcus aureus; Gram-positive, at 24 hours, agar dilution", "description": "as §1"}, "[5]": {"test_system": "S. pneumoniae 6254-01 MLSB resistant", "assay": "MIC by dilutions in agar medium (NCCLS)", "type": "cell-based", "conditions": "Streptococcus pneumoniae; Gram-positive, at 24 hours, agar dilution", "description": "as §1"}}, "note": "Counter-ions that a name gives are not always drawn."}
{"smiles": "COc1ccc2ncc(F)c(CCCC3(C(=O)O)CCN(C/C=C/c4cc(Cl)ccc4Cl)C3)c2c1", "note": "(single isomer, unassigned) [Example 36, 1-[(2E)-3-(2,5-dichlorophenyl)-2-propenyl]-3-[3-(3-fluoro-6-methoxyquinolin-4-yl)propyl]-3-pyrrolidinecarboxylic acid]", "values": [{"measurement": "melting point", "value": 102, "unit": "°C"}]}
{"smiles": "COc1ccc2ncc(F)c(CCCC3(C(=O)O)CCN(C/C=C/c4cc(F)ccc4F)C3)c2c1", "note": "(single isomer, unassigned) [Example 4, 1-[(2E)-3-(2,5-difluorophenyl)-2-propenyl]-3-[3-(3-fluoro-6-methoxyquinolin-4-yl)propyl]-3-pyrrolidinecarboxylic acid]", "values": [{"measurement": "melting point", "value": "80 to 84", "unit": "°C"}]}
{"smiles": "COc1ccc2ncc(F)c(CCCC3(C(=O)O)CCN(C/C=C/c4cc(F)ccc4F)C3)c2c1", "note": "(single isomer, unassigned) [Example 3, 1-[(2E)-3-(2,5-difluorophenyl)-2-propenyl]-3-[3-(3-fluoro-6-methoxyquinolin-4-yl)propyl]-3-pyrrolidinecarboxylic acid]", "values": [{"measurement": "MIC", "setting": "[1]", "value": "0.25 to 32", "unit": "µg/mL"}, {"measurement": "MIC", "setting": "[2]", "value": "0.12 to 2", "unit": "µg/mL"}, {"measurement": "MIC", "setting": "[3]", "value": "0.015 to 4", "unit": "µg/mL"}, {"measurement": "MIC", "setting": "[4]", "value": "0.015 to 4", "unit": "µg/mL"}, {"measurement": "MIC", "setting": "[5]", "value": "0.015 to 4", "unit": "µg/mL"}, {"measurement": "melting point", "value": "76 to 80", "unit": "°C"}]}
{"smiles": "COc1ccc2ncc(F)c(CCCC3(C(=O)O)CCN(C/C=C/c4cc(F)ccc4F)C3)c2c1", "note": "(racemic) [Example 1, (±)-1-[(2E)-3-(2,5-difluorophenyl)-2-propenyl]-3-[3-(3-fluoro-6-methoxyquinolin-4-yl)propyl]-3-pyrrolidinecarboxylic acid]", "values": [{"measurement": "MIC", "setting": "[1]", "value": "0.25 to 32", "unit": "µg/mL"}, {"measurement": "MIC", "setting": "[2]", "value": "0.12 to 2", "unit": "µg/mL"}, {"measurement": "MIC", "setting": "[3]", "value": "0.015 to 4", "unit": "µg/mL"}, {"measurement": "MIC", "setting": "[4]", "value": "0.015 to 4", "unit": "µg/mL"}, {"measurement": "MIC", "setting": "[5]", "value": "0.015 to 4", "unit": "µg/mL"}, {"measurement": "melting point", "value": 77, "unit": "°C"}]}
{"smiles": "COc1ccc2ncc(F)c(CCCC3(C(=O)O)CCN(CCSc4c(F)cccc4F)C3)c2c1", "note": "(single isomer, unassigned) [Example 57, 1-[2-[(2,6-difluorophenyl)thio]ethyl]-3-[3-(3-fluoro-6-methoxyquinolin-4-yl)propyl]-3-pyrrolidinecarboxylic acid]", "values": [{"measurement": "melting point", "value": 106, "unit": "°C"}]}
{"smiles": "COc1ccc2ncc(F)c(CCCC3(C(=O)O)CN(C/C=C/c4cc(F)ccc4F)C3)c2c1", "note": "[Example 11, 1-[(2E)-3-(2,5-difluorophenyl)-2-propenyl]-3-[3-(3-fluoro-6-methoxyquinolin-4-yl)propyl]-3-azetidinecarboxylic acid]", "values": [{"measurement": "melting point", "value": 211, "unit": "°C"}]}
{"smiles": "COc1ccc2ncc(F)c(CCCC3(C(=O)O)CCN(C/C=C/c4c(F)cccc4F)C3)c2c1", "note": "(single isomer, unassigned) (as salt: hydrochloride) [Example 41, 3-[3-(3-fluoro-6-methoxyquinolin-4-yl)propyl]-1-[(2E)-3-(2,6-difluorophenyl)-2-propenyl]-3-pyrrolidinecarboxylic acid]", "values": [{"measurement": "melting point", "value": 96, "unit": "°C"}]}
{"smiles": "COc1ccc2ncc(F)c(CCCC3(C(=O)O)CCN(C/C=C/c4cc(F)c(F)c(F)c4)C3)c2c1", "note": "(single isomer, unassigned) [Example 49, 3-[3-(3-fluoro-6-methoxyquinolin-4-yl)propyl]-1-[(2E)-3-(3,4,5-trifluorophenyl)-2-propenyl]-3-pyrrolidinecarboxylic acid]", "values": [{"measurement": "melting point", "value": 110, "unit": "°C"}]}
{"smiles": "COc1ccc2ncc(F)c(CCCC3(C(=O)O)CCN(CCSc4cccs4)C3)c2c1", "note": "(single isomer, unassigned) [Example 18, 3-[3-(3-fluoro-6-methoxyquinolin-4-yl)propyl]-1-[2-(2-thienylthio)ethyl]-3-pyrrolidinecarboxylic acid]", "values": [{"measurement": "melting point", "value": 172, "unit": "°C"}]}
{"smiles": "COc1ccc2ncc(F)c(CCCC3(C(=O)O)CCN(CCOc4cc(F)ccc4F)C3)c2c1", "note": "(single isomer, unassigned) [Example 30, 1-[2-(2,5-difluorophenoxy)ethyl]-3-[3-(3-fluoro-6-methoxyquinolin-4-yl)propyl]-3-pyrrolidinecarboxylic acid]", "values": [{"measurement": "melting point", "value": 157, "unit": "°C"}]}
{"smiles": "COc1ccc2ncc(F)c(CCCC3(C(=O)O)CCN(CCSc4cccs4)C3)c2c1", "note": "(single isomer, unassigned) [Example 17, 3-[3-(3-fluoro-6-methoxyquinolin-4-yl)propyl]-1-[2-(2-thienylthio)ethyl]-3-pyrrolidinecarboxylic acid]", "values": [{"measurement": "melting point", "value": 160, "unit": "°C"}]}
{"smiles": "COc1ccc2ncc(Cl)c(CCCC3(C(=O)O)CCN(C/C=C/c4cc(F)ccc4F)C3)c2c1", "note": "(racemic) (as salt: sodium) [Example 15, (±)-3-[3-(3-chloro-6-methoxyquinolin-4-yl)propyl]-1-[(2E)-3-(2,5-difluorophenyl)-2-propenyl]-3-pyrrolidinecarboxylic acid]", "values": [{"measurement": "melting point", "value": 77, "unit": "°C"}]}
{"smiles": "COC(=O)C1(CCCc2c(F)cnc3ccc(OC)cc23)CCN(C/C=C/c2cc(F)ccc2F)C1", "note": "(racemic) [Example 2, Methyl (±)-1-[(2E)-3-(2,5-difluorophenyl)-2-propenyl]-3-[3-(3-fluoro-6-methoxyquinolin-4-yl)propyl]-3-pyrrolidinecarboxylate]", "values": [{"measurement": "MIC", "setting": "[1]", "value": "0.25 to 32", "unit": "µg/mL"}, {"measurement": "MIC", "setting": "[2]", "value": "0.12 to 2", "unit": "µg/mL"}, {"measurement": "MIC", "setting": "[3]", "value": "0.015 to 4", "unit": "µg/mL"}, {"measurement": "MIC", "setting": "[4]", "value": "0.015 to 4", "unit": "µg/mL"}, {"measurement": "MIC", "setting": "[5]", "value": "0.015 to 4", "unit": "µg/mL"}]}
{"smiles": "COc1ccc2ncc(F)c(CCCC3(C(=O)O)CCN(C/C=C/c4cc(F)c(F)c(F)c4)C3)c2c1", "note": "(single isomer, unassigned) [Example 50, 3-[3-(3-fluoro-6-methoxyquinolin-4-yl)propyl]-1-[(2E)-3-(3,4,5-trifluorophenyl)-2-propenyl]-3-pyrrolidinecarboxylic acid]", "values": [{"measurement": "melting point", "value": 148, "unit": "°C"}]}
